Measured values reported in patent US8338380B2, “Use of the peptide RFMWMR as a therapeutic agent” (priority 2007, dated 2012).

Columns and labels:
TNF alpha = TNF alpha production assay in LPS-stimulated macrophages (ELISA); assay type: cell-based, human; conditions: PBMC-derived macrophages, 10 micrograms per ml 30 min before lipopolysaccharide 200 ng/ml, overnight
From the text: Not stimulated macrophages served as negative background control.

[1] = Cytotoxicity in HepG2-2.2.15 cells (dye uptake assay); assay type: cell-based; conditions: human, peptide 10 micrograms per ml, read-out: % Cell Viability
MRSA = experiment: Methicillin resistant Staphylococcus aureus (MRSA) assay; assay type: cell-based; conditions: peptide 10 micrograms per ml, macroscopic growth, read visually
[2] = tested on: hepatitis B virus (HBV) ayw strain; experiment: HBV experimental assay system (secreted HBV DNA, TaqMan PCR); assay type: cell-based; conditions: HepG2-2.2.15 cells; peptide 10 micrograms per ml; six days; HBV DNA in supernatant
Method: HepG2-2.2.15 is a stable cell line containing the hepatitis B virus (HBV) ayw strain genome (ATCC Cat. No. CRL-11997). Antiviral compounds blocking any late step of viral replication such as transcription, translation, pregenome encapsidation, reverse transcription, particle assembly and release can be identified and characterized using this cell line.
HepG2-2.2.15 cells were plated in 96-well microtiter plates. After 16-24 hours the confluent monolayer of HepG2-2.2.15 cells was washed and the medium was replaced with complete medium containing test peptide—10 micrograms per ml—in duplicate. […] Three days later the culture medium was replaced with fresh medium containing the peptide. Six days following the initial administration of the peptide, the cell culture supernatants was collected, treated with pronase and DNAse and then used in a real-time quantitative TaqMan PCR assay. The PCR-amplified HBV DNA was detected in real-time by monitoring increases in fluorescence signals that result from the exonucleolytic degradation of a quenched fluorescence probe molecule that hybridizes to the amplified HBV DNA. For each PCR amplification, a standard curve was simultaneously generated using dilutions of purified HBV DNA. Antiviral activity was calculated from the reduction in HBV DNA levels (% virus control). […]

HCMV strain AD169 = experiment: HCMV plaque reduction assay in MRC-5 cells; conditions: HCMV AD169 in MRC-5 cells; peptide 10 micrograms per ml; 7-10 days
Interleukin-5 (IL-5) = experiment: Th1/Th2 cytokine profiling assay: IL-5; assay type: cell-based; conditions: Ovalbumin-restimulated spleen cells of immunized Balb/c mice; 10 micrograms per ml; 72 hours
HIV-1IIIB = experiment: HIV-1 antiviral assay (CPE reduction, MTS); assay type: cell-based; conditions: peptide 10 micrograms per ml, 6 days post-infection
[3] = Cytotoxicity in CEM-SS cells (MTS) of the HIV-1 experiments; conditions: human
A549 cells [4] = experiment: Propidium iodide cell cycle assay; assay type: cell-based, Human; conditions: 10 micrograms per ml, 24 hours, FACS
[5] = tested on: Human Peripheral Blood Mononuclear Cells (PBMC); experiment: T cell proliferation assay (PHA, 3H-thymidine); assay type: cell-based; conditions: 10 micrograms per ml, 3 days, 3H-thymidine incorporation
Interferon-γ (IFN-γ) = experiment: Th1/Th2 cytokine profiling assay: IFN-γ; assay type: cell-based; conditions: Ovalbumin-restimulated spleen cells of immunized Balb/c mice; 10 micrograms per ml; 72 hours
Streptococcus pneumoniae = Streptococcus pneumoniae assay; assay type: cell-based; conditions: peptide 10 micrograms per ml, macroscopic growth, read visually
[6] = Cytotoxicity in MRC-5 cells (CellTiter 96); conditions: human, MRC-5 cells (embryonal lung fibroblasts)
RAW 264.7 cells = experiment: Phagocytosis assay (Fluorescein-labeled Escherichia coli); assay type: cell-based, Mouse; conditions: 10 micrograms per ml, 30 min preincubation, 60 min ingestion, flow cytometry
[7] = tested on: Human Peripheral Blood Mononuclear Cells (PBMC); experiment: B cell proliferation assay (SAC plus Interleukin-2, 3H-thymidine); assay type: cell-based; conditions: 10 micrograms per ml, 3 days, 3H-thymidine incorporation
A549 cells [8] = experiment: Apoptosis induction assay (Annexin-5); assay type: cell-based, Human; conditions: apoptosis in A549 cells, 10 micrograms per ml, 24 hours
Interleukin-4 (IL-4) = experiment: Th1/Th2 cytokine profiling assay: IL-4; assay type: cell-based; conditions: Ovalbumin-restimulated spleen cells of immunized Balb/c mice; 10 micrograms per ml; 72 hours
HUVEC = experiment: Endothelial tube formation assay; assay type: cell-based, Human; conditions: 10 micrograms per ml, 20 hours, average tubule length
From the text: Positive control was vehicle only.

A549 cells [9] = experiment: Apoptosis prevention assay (C2 ceramide, Annexin-5); assay type: cell-based, Human; conditions: A549 cells pretreated 30 min with 10 micrograms per ml, then C2 ceramide
Pseudomonas aeruginosa = Pseudomonas aeruginosa assay; assay type: cell-based; conditions: peptide 10 micrograms per ml, macroscopic growth, read visually
[10] = tested on: Primary Human endothelial cells (HUVEC); experiment: Endothelial cell migration assay; assay type: cell-based; conditions: 10 micrograms per ml, 22 hours
[11] = tested on: Tumor Necrosis Factor-α (TNF-α); experiment: Th1/Th2 cytokine profiling assay: TNF-α; assay type: cell-based; conditions: Ovalbumin-restimulated spleen cells of immunized Balb/c mice; 10 micrograms per ml; 72 hours
Interleukin-2 (IL-2) = experiment: Th1/Th2 cytokine profiling assay: IL-2; assay type: cell-based; conditions: Ovalbumin-restimulated spleen cells of immunized Balb/c mice; 10 micrograms per ml; 72 hours

Substance: Ac-RFMWMR-NH2 [Ac-Arg-Phe-Met-Trp-Met-Arg-NH2]
- % of LPS induction (TNF alpha): 149.8%
- viability at 144 h, 10 micrograms per ml [1]: 100%
- % inhibition (MRSA): 0.0%
- % inhibition of HBV replication in HEP G2 cells [2]: 46.8%
- % plaque reduction (HCMV strain AD169): 0.0%
- IL-5 spleen cells; TH2 response (% of control) (Interleukin-5 (IL-5)): 93.8 % of control
- % CPE reduction in HIV-1 infected CEM-SS cells (HIV-1IIIB): 0.0%
- viability at 10 micrograms per ml [3]: 100%
- Cell cycle analysis G0/G1 (A549 cells [4]): 59.2
- Cell cycle analysis G2/M (A549 cells [4]): 8.2
- Cell cycle analysis S (A549 cells [4]): 32.7
- % of PHA induced control [5]: 109.1%
- INFγ spleen cells; TH1 response (% of control) (Interferon-γ (IFN-γ)): 218.6 % of control
- % inhibition (Streptococcus pneumoniae): 0.0%
- viability at 144 h [6]: 84%
- % of control phagocytosis (RAW 264.7 cells): 105.9%
- % of SAC/IL2 induced control [7]: 106.3%
- % of induction (A549 cells [8]): 1.2%
- IL-4 spleen cells; TH2 response (% of control) (Interleukin-4 (IL-4)): 156.2 % of control
- % inhibition of tube formation (HUVEC): 23%
- % prevention of ceramide induced apoptosis (A549 cells [9]): 0.0%
- % inhibition (Pseudomonas aeruginosa): 0.0%
- % inhibition of migration [10]: −15%
- TNF-a spleen cells; TH1 response (% of control) [11]: 118.8 % of control
- IL-2 spleen cells (% of control) (Interleukin-2 (IL-2)): 156.5 % of control
